Here are results for 28 molecules from patent US20180338964A1, “3-(PIPERIDIN-4-YL)-ISOXAZOL-3(OH)-ONES FOR TREATMENT OF DERMATOLOGIC DISORDERS” (Emeriti Pharma AB, priority 2014, published 2018).

For one data set, the target named is T1, plasminogen kringle 1 (Homo sapiens, UniProt P00747).
T1 construct: Signal intensities from free tranexamic acid are reduced when recombinant kringle 1 protein is added
Nature of the data set: NMR competition assay (1D T1rho) for binding to plasminogen kringle 1, tranexamic acid as reference. The procedure:
The NMR experiment identifies compounds binding to the lysine binding pocket in a competition assay where tranexamic acid was used as reference compound and 1D T1rho experiments were used for detection. Signal intensities from free tranexamic acid are reduced when recombinant kringle 1 protein is added due to binding to this protein. The NMR signals from tranexamic acid regain intensity when an added compound displaces it from the lysine binding pocket of kringle 1.
The compounds were run one-by-one at a concentration between 15 and 300 μM. The concentration of protein and tranexamic acid were 10 and 100 μM respectively. A test compound resulting in at least 10% increase in tranexamic acid intensity (displacement) was considered binding to kringle 1.

The test system of data set [1] is stratum corneum protease activity. The note with it: ˜13% EACA (1 M) cream, rosacea patients; cited from earlier work.
Data set [2] has as its system fibrinolysis in human plasma clot (tPA activation of plasminogen). The note with it: citrated platelet poor human plasma, tPA 80 ng/ml, 37° C.; for IC50: read-out: IC50 (clot-lysis time prolonged to twice the vehicle value); for IC90: read-out: IC90 (clot-lysis time prolonged to nine times the vehicle value).
Data set [3] has as its system stratum corneum barrier function. The note with it: topical 3% (˜0.2M) TXA, rosacea patients; cited from earlier work.
In a further data set the test system is melasma. The note with it: cited from earlier work.
The conditions of data set [4]: oral TXA; cited from earlier work.
For another data set, the system named is stratum corneum barrier. The note with it: topically applied, healthy volunteer, after experimental damage to stratum corneum; cited from earlier work.
The conditions of data set [5]: treatment of bleeding disorders; cited from earlier work.

SMILES strings stand for the structures.

T1 sequence (P00747 103-181 limits assumed): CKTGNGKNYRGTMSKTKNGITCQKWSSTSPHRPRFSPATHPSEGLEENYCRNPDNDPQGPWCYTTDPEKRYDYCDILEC

A word on the Kd: it is the constant that tells how readily two partners part at equilibrium. A low value points to tighter binding. Consider `CC(C)(C)c1cccc([C@H]2C[C@@H](c3cc(=O)[nH]o3)CCN2)c1` [5-[(2R,4S)-2-(3-tert-butylphenyl)piperidin-4-yl]-2,3-dihydro-1,2-oxazol-3-one], for which the Kd at plasminogen kringle 1 was found to be 280 nM. In the case of `O=c1cc([C@H]2CCN[C@@H](Cc3ccc(F)cc3F)C2)o[nH]1` [5-[(2R,4S)-2-[(2,4-difluorophenyl)methyl]piperidin-4-yl]-2,3-dihydro-1,2-oxazol-3-one], the equilibrium dissociation constant (Kd) at plasminogen kringle 1 turned out to be 100 nM. At plasminogen kringle 1, `O=c1cc([C@H]2CCN[C@@H](c3ccc(Cl)cc3)C2)o[nH]1` [5-[(2R,4S)-2-(4-chlorophenyl)piperidin-4-yl]-2,3-dihydro-1,2-oxazol-3-one] yielded a Kd of 100 nM.

Turning to `CS(=O)(=O)c1ccc([C@H]2C[C@@H](c3cc(=O)[nH]o3)CCN2)cc1` [5-[(2R,4S)-2-(4-methanesulfonylphenyl)piperidin-4-yl]-2,3-dihydro-1,2-oxazol-3-one], the dissociation constant Kd at plasminogen kringle 1 was determined as 200 nM. Molecule `O=c1cc([C@H]2CCN[C@@H](Cc3ccc(F)c(F)c3)C2)o[nH]1` [5-[(2R,4S)-2-[(3,4-difluorophenyl)methyl]piperidin-4-yl]-2,3-dihydro-1,2-oxazol-3-one] yielded a dissociation constant (Kd) on plasminogen kringle 1 of 100 nM. Consider `CC(C)(C)c1cc(C[C@H]2C[C@@H](c3cc(=O)[nH]o3)CCN2)cc(C(C)(C)C)c1` [5-[(2R,4S)-2-[(3,5-di-tert-butylphenyl)methyl]piperidin-4-yl]-2,3-dihydro-1,2-oxazol-3-one], for which the Kd at plasminogen kringle 1 was 1000 nM. With `O=c1cc([C@H]2CCN[C@@H](CN3CCC[C@H]3C(F)(F)F)C2)o[nH]1` [5-[(2R,4S)-2-{[(2S)-2-(trifluoromethyl)pyrrolidin-1-yl]methyl}piperidin-4-yl]-2,3-dihydro-1,2-oxazol-3-one], at plasminogen kringle 1, the affinity, expressed as Kd, was 400 nM. The same measure, in the same setting: to `O=c1cc([C@H]2CCN[C@@H](c3ccc(OC(F)(F)F)cc3F)C2)o[nH]1` [5-[(2R,4S)-2-[2-fluoro-4-(trifluoromethoxy)phenyl]piperidin-4-yl]-2,3-dihydro-1,2-oxazol-3-one] belongs 300 nM; to `O=c1cc([C@H]2CCN[C@@H](c3ccc(F)cc3)C2)o[nH]1` [5-[(2R,4S)-2-(4-fluorophenyl)piperidin-4-yl]-2,3-dihydro-1,2-oxazol-3-one], 600 nM. The same measure, in the same setting: next, `O=c1cc([C@H]2CCN[C@@H](c3ccc(F)cc3F)C2)o[nH]1` [5-[(2R,4S)-2-(2,4-difluorophenyl)piperidin-4-yl]-2,3-dihydro-1,2-oxazol-3-one]: 200 nM. On the same count and under the same terms, next, `CC(C)(C)c1ccc(C[C@H]2C[C@@H](c3cc(=O)[nH]o3)CCN2)cc1` [5-[(2R,4S)-2-[(4-tert-butylphenyl)methyl]piperidin-4-yl]-2,3-dihydro-1,2-oxazol-3-one]: 300 nM; `O=c1cc([C@H]2CCN[C@@H](COC3CCCCC3)C2)o[nH]1` [5-[(2R,4S)-2-[(cyclohexyloxy)methyl]piperidin-4-yl]-2,3-dihydro-1,2-oxazol-3-one]: 300 nM.

With `O=c1cc([C@H]2CCN[C@@H](Cc3cc(F)c(F)c(F)c3)C2)o[nH]1` [5-[(2R,4S)-2-[(3,4,5-trifluorophenyl)methyl]piperidin-4-yl]-2,3-dihydro-1,2-oxazol-3-one], the Kd on plasminogen kringle 1 was determined as 140 nM. One may read the IC50 as the concentration that gives 50% inhibition. Usually IC90 stands for the concentration needed for an effect of 90%. With `NCCCCCC(=O)O` [EACA, 6-aminohexanoic acid], the “stratum corneum protease activity” value in data set [1] is given as “reduction in stratum corneum protease activity”. Further, in data set [2], the IC50 was found to be 72700 nM and the IC90 came out at 637000 nM. `Cn1nnc([C@H]2C[C@@H](c3cc(=O)[nH]o3)CCN2)n1` [5-[(2R,4S)-2-(2-methyl-2H-1,2,3,4-tetrazol-5-yl)piperidin-4-yl]-2,3-dihydro-1,2-oxazol-3-one] displayed a dissociation constant (Kd) at plasminogen kringle 1 of 200 nM. As to `NCC1CCC(C(=O)O)CC1` (stereo not shown) [TXA, 4-(aminomethyl)cyclohexane-1-carboxylic acid], the “stratum corneum barrier function” value in data set [3] was “improved stratum corneum barrier function”. Also, the effect on melasma result in the data set with melasma (topical 5% (˜0.3M) TXA versus vehicle) is reported as “no effect”. The erythema entry with melasma (topical 5% (˜0.3M) TXA) is reported as “produced erythema”. Besides, the “allergic skin reaction, fraction of treated” value in data set [4] is given as < 1/100. Further, the “stratum corneum barrier recovery” value with stratum corneum barrier was “enhance stratum corneum barrier recovery”. Also, in data set [5], the therapeutic plasma concentration was 30 to 90 µM. Moreover, in data set [2], the IC50 came to 6660 nM and the IC90 worked out at 55400 nM. Turning to `O=c1cc([C@H]2CCN[C@@H](c3ccc(Cl)cc3Cl)C2)o[nH]1` [5-[(2R,4S)-2-(2,4-dichlorophenyl)piperidin-4-yl]-2,3-dihydro-1,2-oxazol-3-one], on plasminogen kringle 1, binding was characterised by a dissociation constant (Kd) of 200 nM. Same read-out and setting: next, `O=c1cc([C@H]2CCN[C@@H](CN3CCn4c(nnc4C(F)(F)F)C3)C2)o[nH]1` [5-[(2R,4S)-2-{[3-(trifluoromethyl)-5H,6H,7H,8H-[1,2,4]triazolo[4,3-a]pyrazin-7-yl]methyl}piperidin-4-yl]-2,3-dihydro-1,2-oxazol-3-one]: 240 nM. As to `O=c1cc([C@H]2CCN[C@@H](c3cc(F)c(F)cc3F)C2)o[nH]1` [5-[(2R,4S)-2-(2,4,5-trifluorophenyl)piperidin-4-yl]-2,3-dihydro-1,2-oxazol-3-one], the Kd on plasminogen kringle 1 came to 300 nM. `O=c1cc([C@H]2CCN[C@@H](c3ccc(C(F)(F)F)c(F)c3)C2)o[nH]1` [5-[(2R,4S)-2-[3-fluoro-4-(trifluoromethyl)phenyl]piperidin-4-yl]-2,3-dihydro-1,2-oxazol-3-one] registered a Kd at plasminogen kringle 1 of 200 nM. In the case of `O=c1cc([C@H]2CCN[C@@H](Cc3ccc(C(F)(F)F)c(F)c3)C2)o[nH]1` [5-[(2R,4S)-2-{[3-fluoro-4-(trifluoromethyl)phenyl]methyl}piperidin-4-yl]-2,3-dihydro-1,2-oxazol-3-one], the Kd at plasminogen kringle 1 worked out at 240 nM.

Consider `CC(C)(C)c1ccc(C[C@@H]2C[C@@H](c3cc(=O)[nH]o3)CCN2)cc1` [5-[(2S,4S)-2-[(4-tert-butylphenyl)methyl]piperidin-4-yl]-2,3-dihydro-1,2-oxazol-3-one], for which the Kd at plasminogen kringle 1 turned out to be 100 nM. The same measure, in the same setting: next, `O=c1cc([C@H]2CCN[C@@H](c3ccc(C(F)(F)F)cc3F)C2)o[nH]1` [5-[(2R,4S)-2-[2-fluoro-4-(trifluoromethyl)phenyl]piperidin-4-yl]-2,3-dihydro-1,2-oxazol-3-one]: 300 nM; `Cc1cc(C(F)(F)F)ccc1[C@H]1C[C@@H](c2cc(=O)[nH]o2)CCN1` [5-[(2R,4S)-2-[2-methyl-4-(trifluoromethyl)phenyl]piperidin-4-yl]-2,3-dihydro-1,2-oxazol-3-one]: 300 nM. Still for that read-out and setting: to `CS(=O)(=O)c1ccc(C[C@H]2C[C@@H](c3cc(=O)[nH]o3)CCN2)cc1` [5-[(2R,4S)-2-[(4-methanesulfonylphenyl)methyl]piperidin-4-yl]-2,3-dihydro-1,2-oxazol-3-one] belongs 400 nM; to `O=c1cc([C@H]2CCN[C@@H](c3ccc(C(F)(F)F)nc3)C2)o[nH]1` [5-[(2R,4S)-2-[6-(trifluoromethyl)pyridin-3-yl]piperidin-4-yl]-2,3-dihydro-1,2-oxazol-3-one], 280 nM; to `O=c1cc([C@H]2CCN[C@@H](c3ccc(C(F)(F)F)cc3)C2)o[nH]1` [5-[(2R,4S)-2-[4-(trifluoromethyl)phenyl]piperidin-4-yl]-2,3-dihydro-1,2-oxazol-3-one], 100 nM. Same read-out and setting: next, `Cc1cc([C@H]2C[C@@H](c3cc(=O)[nH]o3)CCN2)ccc1C(F)(F)F` [5-[(2R,4S)-2-[3-methyl-4-(trifluoromethyl)phenyl]piperidin-4-yl]-2,3-dihydro-1,2-oxazol-3-one]: 100 nM.
